By IC50 is commonly meant the concentration that gives 50% inhibition.

The target of the assay is T1, Phosphatidylinositol 4,5-bisphosphate 3-kinase catalytic subunit delta isoform (Homo sapiens, UniProt O00329).
T1 sequence (O00329 whole entry): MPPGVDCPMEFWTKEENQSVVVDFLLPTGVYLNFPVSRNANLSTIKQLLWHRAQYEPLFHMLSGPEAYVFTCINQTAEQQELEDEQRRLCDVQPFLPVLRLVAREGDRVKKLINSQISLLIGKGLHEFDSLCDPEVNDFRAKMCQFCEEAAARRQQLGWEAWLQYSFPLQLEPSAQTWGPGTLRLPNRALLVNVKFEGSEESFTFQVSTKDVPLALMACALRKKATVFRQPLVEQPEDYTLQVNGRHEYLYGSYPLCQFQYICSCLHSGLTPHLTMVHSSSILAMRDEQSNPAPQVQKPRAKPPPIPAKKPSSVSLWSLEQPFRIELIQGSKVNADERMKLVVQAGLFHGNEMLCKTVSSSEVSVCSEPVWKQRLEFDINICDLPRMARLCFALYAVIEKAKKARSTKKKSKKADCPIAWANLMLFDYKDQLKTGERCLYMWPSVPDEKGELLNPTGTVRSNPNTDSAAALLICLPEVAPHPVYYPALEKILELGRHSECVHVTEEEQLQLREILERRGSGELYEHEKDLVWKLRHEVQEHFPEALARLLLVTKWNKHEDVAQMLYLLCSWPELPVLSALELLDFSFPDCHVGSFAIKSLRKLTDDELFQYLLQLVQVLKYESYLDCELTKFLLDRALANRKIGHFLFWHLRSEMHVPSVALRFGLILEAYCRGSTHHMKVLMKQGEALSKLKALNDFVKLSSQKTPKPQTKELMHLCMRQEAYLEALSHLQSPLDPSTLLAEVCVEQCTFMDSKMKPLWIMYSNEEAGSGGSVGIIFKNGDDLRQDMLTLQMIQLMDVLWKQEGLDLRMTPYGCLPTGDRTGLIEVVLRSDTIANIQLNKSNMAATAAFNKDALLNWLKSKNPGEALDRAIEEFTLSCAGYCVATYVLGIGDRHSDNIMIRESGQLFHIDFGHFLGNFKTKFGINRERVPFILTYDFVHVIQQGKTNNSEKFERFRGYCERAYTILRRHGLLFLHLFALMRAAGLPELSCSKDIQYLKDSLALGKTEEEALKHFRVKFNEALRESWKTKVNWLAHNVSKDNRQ
The assay is described as follows: PI3Kdelta Scintillation Proximity A3 Assay. The protocol: [γ-33P]ATP (10 mCi/mL) was purchased from Perkin-Elmer (Waltham, Mass.). […] PI3Kδ (p110δ/p85α) was purchased from Millipore (Bedford, Mass.). ATP, MgCl2, DTT, EDTA, MOPS and CHAPS were purchased from Sigma-Aldrich (St. Louis, Mo.). Wheat Germ Agglutinin (WGA) YSi SPA Scintillation Beads was purchased from GE healthcare life sciences (Piscataway, N.J.).The kinase reaction was conducted in polystyrene 384-well matrix white plate from Thermo Fisher Scientific in a final volume of 25 μL. Inhibitors were first diluted serially in DMSO and added to the plate wells before the addition of other reaction components. The final concentration of DMSO in the assay was 0.5%. The PI3K assays were carried out at room temperature in 20 mM MOPS, pH 6.7, 10 mM MgCl2, 5 mM DTT and CHAPS 0.03%. Reactions were initiated by the addition of ATP, the final reaction mixture consisted of 20 μM PIP2, 20 μM ATP, 0.2 μCi [γ-33P] ATP, 4 nM PI3Kδ. […] 25 mM EDTA, 400 μM ATP. The final concentration of SPA beads was 1.0 mg/mL. After the plate sealing, plates were shaken overnight at room temperature and centrifuged at 1800 rpm for 10 minutes, the radioactivity of the product was determined by scintillation counting on Topcount (Perkin-Elmer). IC50 determination was performed by fitting the curve of percent control activity versus the log of the inhibitor concentration using the GraphPad Prism 3.0 software.
(Scintillation proximity formats need no separation of bound from free tracer.)

In the case of `COc1c(C(C)n2nc(C3C=NNC3)c3c(N)ncnc32)cc(Cl)c(C)c1C1CN(CC#N)C1` (stereo unspecified) [US10376513, Example 126], the IC50 was less than 10 nM.

Values taken from BindingDB's records for patent US10376513 (Incyte Holdings Corporation, 2019).
